Test results from PubChem BioAssay AID1322 (NMMLSC, 2008).
Calls of active or inactive are those of the source. How the calls were made is not given here.

Target: Bcl-2-like protein 1 (Homo sapiens) (UniProt Q07817)
Assay: Bcl-XL binding to Bim peptide disruption – biochemical, multiplexed, bead flow cytometry, human Bcl-XL, dose response (AID 1322); on inhibition: test concentration not given here
Conditions: Bead-based flow cytometry, MCF; for inhibition: active compounds read high

Bcl-2-like protein 1 (Homo sapiens), sequence (Q07817 whole entry, looked up): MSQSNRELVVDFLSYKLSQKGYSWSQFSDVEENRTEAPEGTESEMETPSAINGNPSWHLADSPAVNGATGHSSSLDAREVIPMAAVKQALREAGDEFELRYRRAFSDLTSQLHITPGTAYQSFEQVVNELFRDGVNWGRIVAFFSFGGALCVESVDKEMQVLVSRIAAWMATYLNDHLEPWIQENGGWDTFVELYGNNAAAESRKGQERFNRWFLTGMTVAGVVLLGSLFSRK

Compound | inhibition | other results
COc1cccc(C(=O)/C=C/Nc2ccc(S(=O)(=O)Nc3onc(C)c3C)cc2)c1 | inactive | –
CNc1nc2ccccc2n1/N=C/c1cccc(OC)c1OC | inactive | –
CCC(=O)N(CC)C1=C(O)c2ccccc2C(=O)C1=O | inactive | –
OC(COc1ccc2ccccc2c1)CN1CCCC1 (stereo not given) | inactive | –
O=C(N/N=C/c1cccc([N+](=O)[O-])c1)c1cccs1 | – | outcome: inactive
CCCCC(C(=O)OCC)C(N)Cc1ccc(F)cc1 (stereo not given) | – | outcome: inactive
Cc1ccnc(NS(=O)(=O)c2ccc(NS(=O)(=O)c3cccs3)cc2)n1 | inactive | –
COc1ccc(N2C(=O)/C(=C/c3cccs3)NC2=S)cc1 | inactive | –
CCOC(=O)C1=C(CC)Nc2ccccc2N=C1NC(=O)c1ccc(S(=O)(=O)N2CCOCC2)cc1 | – | outcome: inactive
CCCCC(=O)Nc1ccc(C(=O)N2CCC(C(=O)OCC)CC2)cc1 | inactive | –
Cc1ccc(-c2cc(C(=O)Nc3ccccc3C)c3ccccc3n2)o1 | inactive | –
COc1ccc(-n2cc(-c3ccc(OC)c(OC)c3)[nH]c2=S)cc1 | inactive | –
c1ccc(-c2nnc(OCCN3CCOCC3)c3ccccc23)cc1 | inactive | –
COCCn1nnnc1CN(Cc1ccco1)Cc1cc2cc3c(cc2[nH]c1=O)OCO3 | inactive | –
CCN(CC)c1ccc(NC(=O)c2ccccc2)cc1S(=O)(=O)Nc1ccccc1OC | inactive | –
CCC(=O)OCCNc1cc(Sc2nc3ccccc3s2)c2nonc2c1[N+](=O)[O-] | inactive | –
O=[N+]([O-])c1c(NCCCO)cc(Sc2nc3ccccc3s2)c2nonc12 | inactive | –
Cc1onc(-c2ccccc2Cl)c1C(=O)Nc1nn[nH]n1 | inactive | –
Cc1ccc(Nc2nc(-c3ccccc3)c(CC(=O)O)s2)cc1 | inactive | –
CCc1cccc(CC)c1NC(=S)N1CCn2cccc2C1c1cccnc1 (stereo not given) | – | outcome: inactive
COc1cc(NC(=S)NC(=O)c2cc(C)cc(C)c2)ccc1NC(=O)c1cccs1 | inactive | –
Cc1onc(-c2ccccc2)c1C(=O)Nc1nnc(COc2ccc(Cl)cc2)s1 | inactive | –
CC(C)=C1C(=O)NN(c2ccc(C)c(Cl)c2)C1=O | inactive | –
Nc1ccc(N2CCN(CCCCN3C(=O)C4CCCN4C3=O)CC2)cc1 (stereo not given) | inactive | –
CCNC(=S)Nc1cc(OCC)c(NC(=O)c2cccs2)cc1OCC | inactive | –
CNc1ccccc(C(=O)/C=C/c2ccccc2OC)c1=O | inactive | –
Cn1c(=O)[nH]c(=O)c2c1nc(N1CCOCC1)n2CCSc1nc2ccccc2[nH]1 | inactive | –

Compound | inhibition | other results
CCOc1cc(/C=C2/N=C(C)C(C(=O)OC)=C2O)ccc1O | inactive | –
CN(C)c1ccc(C=C2C(=O)NC(=O)NC2=O)cc1[N+](=O)[O-] | inactive | –
CCc1nnc(NC(=O)CSc2nnc(COc3ccc(C)cc3)n2-c2ccccc2)s1 | inactive | –
CN(CC(=O)O/N=C(\N)c1ccc([N+](=O)[O-])cc1)S(=O)(=O)c1ccccc1 | inactive | –
Cc1cc(C)nc(/N=C(\N)N2CCc3ccccc32)n1 | inactive | –
Cc1ccc(-c2cc(C(=O)Nc3nccs3)c3ccccc3n2)o1 | inactive | –
O=C(NC1=C(Nc2ccc(F)cc2)C(=O)c2ccccc2C1=O)c1ccc(Cl)cc1 | inactive | –
COc1ccc(OCCNC(=O)c2ccccc2OCC(=O)N2CCCCC2)cc1 | inactive | –
CCOc1ccccc1NC(=O)CSc1nnc2ccc(-c3cccnc3)nn12 | inactive | –
N/C(=N\N=C/c1ccc(Br)cc1)N/N=C\c1ccc(Br)cc1 | inactive | –
COc1ccc(N2CC(C(=O)Nc3nnc(SCC(=O)c4ccccc4)s3)CC2=O)cc1 (stereo not given) | inactive | –
COc1ccc(C(=O)Nc2ccc(NC(=O)c3cccs3)cc2)cc1Cl | inactive | –
O=C(C[n+]1ccc(-c2nnc3n2CCC3)cc1)c1ccc(Cl)cc1 | – | outcome: inactive
CCOC(=O)C1=C(CP(=O)(c2ccccc2)c2ccccc2)NC(=O)NC1c1ccc(OC)cc1 (stereo not given) | inactive | –
O=C(Nc1cccc(Cl)c1)Nc1ccc(Cl)cn1 | inactive | –
COc1ccc(OC)c(Nc2ccc(C(=O)O)cc2[N+](=O)[O-])c1 | – | outcome: inactive
COc1ccc2nc(C)cc(SCC(=O)N/N=C/c3ccc(O)c(O)c3)c2c1 | inactive | –
OC(COc1ccc2cc(Br)ccc2c1)CN1CCOCC1 (stereo not given) | inactive | –
Cc1nnc(NCc2n[nH]c(=O)c3ccccc23)c2ccccc12 | inactive | –
CC1C=CCC2C(=O)N(c3ccc(OC(=O)c4cccs4)cc3)C(=O)C12 (stereo not given) | – | outcome: inactive
CC1=C2C(CCS2(=O)=O)CC2(C1)C(=O)OC(C)(C)OC2=O (stereo not given) | inactive | –
COc1ccccc1NC1=C(NC(C)=O)C(=O)c2ccccc2C1=O | inactive | –
CC(=O)Nc1ccc(NC2=C(Cl)C(=O)c3ccccc3C2=O)cc1 | inactive | –
O=C(CNC(=O)c1ccc(S(=O)(=O)N2CCCC2)cc1)N/N=C/c1ccc(Cl)cc1Cl | – | outcome: inactive
CN(CCCOc1ccccc1Br)Cc1ccccc1 | inactive | –
Cc1cnnn1-c1ccc(C(=O)CCl)cc1 | inactive | –
Clc1ccc(N=c2ssnc2Cl)nc1 | – | outcome: inactive

Compound | inhibition | other results
COc1cccc2c1C(=O)C=C(C)C2=O | inactive | –
O=C(NCC1CCCO1)c1ccc2c(=O)n(-c3ccc(F)cc3)c(=S)[nH]c2c1 (stereo not given) | inactive | –
O=C(N/N=C/c1ccncc1)c1cccc(NC(=O)c2ccccc2Cl)c1 | inactive | –
Cc1c(N2C(=O)c3ccc4c5c(ccc(c35)C2=O)CC4)c(=O)n(-c2ccccc2)n1C | inactive | –
CNC(=O)/C(C#N)=C/c1c(N(Cc2ccccc2)Cc2ccccc2)nc2c(C)cccn2c1=O | inactive | –
O=C(NCc1ccccc1)C(=O)Nc1nc(C23CC4CC(CC(C4)C2)C3)cs1 | inactive | –
Cc1ccc(C)c(/C=C/C(=O)c2ccccc(=O)c2O)c1 | inactive | –
CCN(CC)c1ccc(NC(=O)c2ccccc2F)cc1S(=O)(=O)Nc1ccccc1OC | inactive | –
CCc1ccc(NC(=O)Cc2ccc(OC)cc2)cc1 | – | outcome: inactive
O=C(NC1=C(Nc2ccc(Cl)cc2)C(=O)c2ccccc2C1=O)c1ccccc1 | inactive | –
O=C(Nc1ccc2nc(-c3ccco3)c(-c3ccco3)nc2c1)N1CCCCCC1 | inactive | –
COc1cc(OC)c([N+](=O)[O-])cc1/C=N/NC(=O)c1ccncc1 | inactive | –
FC(F)(F)c1ccc2c(c1)C1C=CCC1C(c1ccncc1)N2 (stereo not given) | – | outcome: inactive
CCc1ccc(NC(=O)CC2NCCNC2=O)cc1 (stereo not given) | inactive | –
Cc1ccnc(NS(=O)(=O)c2ccc(NC(=O)c3c(-c4ccccc4Cl)noc3C)cc2)n1 | inactive | –
C(=C\c1ccccc1)/CSc1nnc(-c2ccccn2)n1Cc1ccco1 | inactive | –
COc1ccccc1-n1c(-c2ccc(Cl)cc2)c[nH]c1=S | inactive | –
Cc1nc2ccccc2n1CSc1ccccc1 | inactive | –
CCOc1cc(NC(=S)NC)c(OCC)cc1NC(=O)c1ccc(OC)cc1 | – | outcome: inactive
CCSc1nnc(NC(=O)c2c(-c3ccccc3Cl)noc2C)s1 | inactive | –
COc1ccc(NC(=O)c2cc(-c3ccc(C)o3)nc3ccccc23)cc1OC | inactive | –
Cc1ccc2nc3c(cc(C(N)=S)c(=N)n3CCCOC(C)C)c(=O)n2c1 | inactive | –
CCOC(=O)CCCNC(=O)c1cncc(O)c1 | inactive | –
CCNC(=S)Nc1ccc(OCC)cc1 | inactive | –
COc1ccc2nc(C)cc(SCC(=O)N/N=C/c3ccc(O)cc3O)c2c1 | inactive | –
Cc1cc(C)nc(/N=c2/ssnc2Cl)c1 | inactive | –
Cc1ccc(/C=N/NC(=O)CSc2nnc(-c3ccc(Cl)cc3)n2-c2ccccc2)o1 | inactive | –

Compound | inhibition | other results
CCN1/C(=C/c2ccc3cc(C)ccc3[n+]2CC)Sc2cc(C)c(C)cc21 | inactive | –
Cc1ccc(NC(=O)CSc2nc3ccccc3c(=O)n2CCCN2CCCCC2)cc1Cl | inactive | –
Cc1ccc(-c2cc(C(=O)Nc3cc(C(=O)O)ccc3C)c3ccccc3n2)cc1 | – | outcome: inactive
CCc1cccc(NC(=O)COc2ccccc2)c1 | inactive | –
Cn1c(N)c(C(=O)COC(=O)c2cc(-c3ccco3)nc3ccccc23)c(=O)n(C)c1=O | inactive | –
Fc1ccc(Cn2nnnc2C(c2ccc(Cl)cc2)N2CCSCC2)cc1 (stereo not given) | inactive | –
COc1ccccc1NC(=O)CSc1ncn(-c2ccccc2)n1 | inactive | –
CCN1C(=O)/C(=C\C=C2/C=CC=CN2CC)SC1=S | inactive | –
COC(=O)c1sc(NC(=O)c2ccc(Cn3cc(Cl)cn3)o2)c(C#N)c1C | inactive | –
Cc1c(N=C2C=CC(=O)c3ccccc32)c(=O)n(-c2ccccc2)n1C | inactive | –
Fc1ccc(/C=C2\CCCC3=C2NC(=S)NC3c2ccc(F)cc2)cc1 (stereo not given) | inactive | –
CCC(CC)C(=O)Nc1cccc(SC)c1 | inactive | –
Fc1cccc(Nc2nc(-c3ccncc3)nc3ccccc23)c1 | – | outcome: inactive
CCNC(=O)N1c2ccc(OCC)cc2C(C)=CC1(C)C | inactive | –
Cc1cc(N2CCN(C)CC2)nc2ccc(NC(=S)N3CCN(c4ccc(F)cc4)CC3)cc12 | inactive | –
c1csc(C2=Nn3c(nnc3-c3ccncc3)SC2)c1 | inactive | –
Cc1ccc(/C=C/C(=O)c2ccccc(=O)c2O)c(C)c1 | inactive | –
O=C(OCc1cnc(Cl)s1)c1cccc(Cl)c1Cl | inactive | –
CC1(C(=O)N(CC(=O)NC2CCCC2)Cc2ccco2)CC(=O)N=C2C=CC=CN21 (stereo not given) | inactive | –
COc1cc(/C=N/Nc2nn3cnnc3c3ccccc23)ccc1O | – | EC50: inactive
CCOC(=O)CSC1=NC(=O)/C(=C\c2ccc(OC(C)=O)cc2)S1 | inactive | –
O=C(NC1=C(NC2CCS(=O)(=O)C2)C(=O)c2ccccc2C1=O)c1ccccc1 (stereo not given) | inactive | –
CN(C)/C=C/C(=O)c1ccc(C(F)(F)F)cc1F | inactive | –
CCOC(=O)c1ccc(N=c2ssnc2Cl)cc1 | – | outcome: inactive
